From patent publication US20250213593A1, “Use of Derivatives based on Sarsasapogenin Structure and Pharmaceutical Compositions thereof” (BEIJING PHYTOVENT PHARMACEUTICAL TECHNOLOGY CO., LTD., priority 2022, published 2025) come the findings set out here.

The subject of experiment [1] is rats with ulcerative colitis induced by TNBS. Briefly: TNBS rats enteritis model. The class given is in vivo, rat. As to conditions: 80 mpk oral gavage once a day, 7 days. How it is done: All rats except the normal control group were fasted for solids (not liquids) for 24 h. After being anesthetized with isoflurane, the rats were transrectally infused with a TNBS ethanol solution (18 mg TNBS/mouse) at 0.5 mL/mouse through a latex hose, the length of the hose into the rectum was about 8 cm, an anesthesia state was continued after the hose was withdrawn, and the rats were kept in an inclined state for 15 min. The rats in the normal control group were not stimulated with rectal cannula. After the animals were awake, they were randomly divided into groups, which then began to be administrated with drugs (marked as D1). The blank group and the model group were administrated with the same amount of vehicle by oral gavage once a day for 7 consecutive days (D1-D7). The animal's status and feces (loose stools or bloody stools) were observed every day. The body weights were monitored. On the next day after the last administration (D8), the animals were deeply anesthetized with CO2, sacrificed and dissected. The entire colon tissues were harvested. The colon content was washed with normal saline after dissection along the mesenteric side. The body weights were measured and the colon lengths were measured. A ulcer surface was measured by Image J software. The general conditions of the colons were observed and photographed. Some of diseased tissues were fixed with formalin, and subjected to histopathological observation by HE staining. • Results: (1) the effects on general conditions of TNBS colitis mice were shown in FIG. 46a: the rats had loose stool on the next day of TNBS modeling; and the modeled mice had symptoms of reduced diet, tiredness, emaciation, erect hair, and dull hair. The feces of some rats were improved in the later stage of administration, but some rats still maintained loose stool until the end of the experiment, and some rats had obvious abdominal distension in the later stage of the experiment.

Experiment [2] deals with SARS-CoV-2 pseudovirus (HEK293T cells). The experiment is classed as cell-based.
The subject of experiment [3] is C57BL/6 mice modeled with MPTP. Kind of experiment: PD mouse model (MPTP). As to conditions: 80 mpk, 15 days; vs model group, T-test. The experiment is classed as in vivo. The procedure:
• Experimental and analytical method: mice of C57BL/6 strain were used in this experiment, which were divided into 5 groups, including a normal control group (no injection of MPTP), a model group (modeling with MPTP), and treatment groups of three small molecules (Embodiment 13B, Embodiment 25A, and Embodiment 25B). The drug was administered at the same time as modeling was made. The modeling lasted for 5 days, followed by 30 mpk intraperitoneal injection till lasting for 15 days, and lasted for 15 days at 80 mpk. At the endpoint, the brain was soaked and fixed in PFA after cardiac perfusion, and transferred to sucrose dehydration after complete fixation, and OCT embedding and sectioning were used for TH staining after complete dehydration. The detection indicator was the number of TH-positive cells in the substantia nigra. The more positive cells, the better the protection effect of small molecules against MPTP damage. • Results: there were 12 mice in each group, and the statistical results were shown in FIG. 50, T-test, **: p<0.01, #: p<0.05.

In experiment [4] the test system is TDP43^A315T transgenic mice. The note with it: 40 mpk from Day 60.
Excerpt: Our experiments were divided into two groups, i.e., a model group and an administration group.
For another experiment, the system named is hippocampal neurons. Kind of experiment: L-cysteine-induced neuronal excitotoxicity. The experiment is classed as cell-based, SD rats. As to conditions: compound 1 μM, 24 h before inducer. The method, boiled down: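 Primary E18-19 SD rat hippocampal neurons at DIV19 pretreated 24 h with compound (final 1 μM; AP5 100 μM positive control, DMSO negative), then exposed to L-cystine 400 μM plus NaHCO3 10 mM for 18 h. Hoechst staining; total and dead neurons counted in 6 random fields per well.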

The subject of a further experiment is male SD rats, TBI model. Briefly: Acute traumatic brain injury (TBI) rat model. The experiment is classed as in vivo. As to conditions: 80 mpk once a day, 7 days; vs solvent control (P<0.05). The procedure:
• Experimental and analytical method: male SD rats were used in this experiment to establish a TBI rat model, which was randomly divided into: a solvent control group (8 rats), a test product Embodiment 13B (80 mpk, 10 rats), and a test product Embodiment 26 (80 mpk, 9 rats). After TBI surgery, drugs were administered by gavage once a day for 7 consecutive days.

For the compound `C[C@H]1CC[C@@]2(OC1)O[C@H]1C[C@@H]3[C@H](CC[C@H]4[C@H]3CC[C@@H]3C[C@H](NC(=O)CC(=O)N5CCN(CCN(C)C)CC5)CC[C@@]34C)[C@H]1[C@@H]2C` [Embodiment 13b], in experiment [1], the colon ulcer area entry is on record as “more significant” and the “colon weight per unit length (colon weight/colon length)” value is “more significant”. Also, the “mitochondrial fragmentation after pseudovirus infection” value in experiment [2] is “not fragmented”. Further, the “number of TH-positive cells in the substantia nigra” value in experiment [3] is recorded as “statistically significant differences”. In addition, in experiment [4], the “survival time (in words)” value is “could effectively prolong the survival time”. The “start of significant body weight decrease” value in experiment [4] (model group Week 13) came to 16 Week. Further, in experiment [4] (model group about Day 120), the death median came out at 135 days. The all died in experiment [4] (model group about Day 140) stood at 150 days. Further, the first deaths in experiment [4] (model group from Day 90) was more than 100 days. Also, the “protective effects on L-Cystine (400 μM)-induced neuronal excitotoxicity” value in the experiment on hippocampal neurons was “protective effects”. For the same compound, in the experiment on male SD rats, TBI model, the “early brain apoptosis rates” value is “significantly lower” and the total apoptosis rates entry was “significantly lower”.
